Columns and labels:
Test in all cases: KINOMEscan competitive binding, whole panel
panel of 203 kinases [1] = target: T1, panel of 203 kinases (Homo sapiens, UniProt Q9P2K8, S808G); settings: 10 µM, n=1; kinase GCN2(Kin.Dom.2,S808G); read-out: Percent inhibition GCN2(Kin.Dom.2,S808G)
T1 construct: purchased DiscoverX (KINOMEscan)
In short: (§1)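 T7 phage-fused kinases; compound displaces immobilized ATP-site probe ligand; bead-bound kinase quantified; % inhibition reported.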

panel of 203 kinases [2] = target: T2, panel of 203 kinases (Homo sapiens, UniProt Q9UEE5); settings: 10 µM, n=1; kinase DRAK1; read-out: Percent inhibition DRAK1
T2 construct: purchased DiscoverX (KINOMEscan)
T2 sequence (Q9UEE5 1-414): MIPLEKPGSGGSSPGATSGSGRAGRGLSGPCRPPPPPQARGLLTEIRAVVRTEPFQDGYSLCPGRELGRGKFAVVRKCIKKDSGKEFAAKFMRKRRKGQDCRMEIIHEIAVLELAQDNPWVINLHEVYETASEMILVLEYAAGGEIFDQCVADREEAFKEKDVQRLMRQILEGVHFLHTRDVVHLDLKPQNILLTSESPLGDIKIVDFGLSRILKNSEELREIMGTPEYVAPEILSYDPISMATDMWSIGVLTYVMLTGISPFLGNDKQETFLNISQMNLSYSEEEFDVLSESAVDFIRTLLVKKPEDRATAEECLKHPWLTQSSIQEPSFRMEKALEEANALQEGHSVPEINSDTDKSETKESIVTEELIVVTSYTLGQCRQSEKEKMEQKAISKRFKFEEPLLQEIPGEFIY
In short: as §1

panel of 203 kinases [3] = target: T3, panel of 203 kinases (Homo sapiens, UniProt Q96GD4); settings: 10 µM, n=1; kinase AURKB; read-out: Percent inhibition AURKB
T3 construct: purchased DiscoverX (KINOMEscan)
In short: as §1

panel of 203 kinases [4] = target: T4, panel of 203 kinases (Homo sapiens, UniProt P29323); settings: 10 µM, n=1; kinase EPHB2; read-out: Percent inhibition EPHB2
T4 construct: purchased DiscoverX (KINOMEscan)
T4 sequence (P29323 19-1055): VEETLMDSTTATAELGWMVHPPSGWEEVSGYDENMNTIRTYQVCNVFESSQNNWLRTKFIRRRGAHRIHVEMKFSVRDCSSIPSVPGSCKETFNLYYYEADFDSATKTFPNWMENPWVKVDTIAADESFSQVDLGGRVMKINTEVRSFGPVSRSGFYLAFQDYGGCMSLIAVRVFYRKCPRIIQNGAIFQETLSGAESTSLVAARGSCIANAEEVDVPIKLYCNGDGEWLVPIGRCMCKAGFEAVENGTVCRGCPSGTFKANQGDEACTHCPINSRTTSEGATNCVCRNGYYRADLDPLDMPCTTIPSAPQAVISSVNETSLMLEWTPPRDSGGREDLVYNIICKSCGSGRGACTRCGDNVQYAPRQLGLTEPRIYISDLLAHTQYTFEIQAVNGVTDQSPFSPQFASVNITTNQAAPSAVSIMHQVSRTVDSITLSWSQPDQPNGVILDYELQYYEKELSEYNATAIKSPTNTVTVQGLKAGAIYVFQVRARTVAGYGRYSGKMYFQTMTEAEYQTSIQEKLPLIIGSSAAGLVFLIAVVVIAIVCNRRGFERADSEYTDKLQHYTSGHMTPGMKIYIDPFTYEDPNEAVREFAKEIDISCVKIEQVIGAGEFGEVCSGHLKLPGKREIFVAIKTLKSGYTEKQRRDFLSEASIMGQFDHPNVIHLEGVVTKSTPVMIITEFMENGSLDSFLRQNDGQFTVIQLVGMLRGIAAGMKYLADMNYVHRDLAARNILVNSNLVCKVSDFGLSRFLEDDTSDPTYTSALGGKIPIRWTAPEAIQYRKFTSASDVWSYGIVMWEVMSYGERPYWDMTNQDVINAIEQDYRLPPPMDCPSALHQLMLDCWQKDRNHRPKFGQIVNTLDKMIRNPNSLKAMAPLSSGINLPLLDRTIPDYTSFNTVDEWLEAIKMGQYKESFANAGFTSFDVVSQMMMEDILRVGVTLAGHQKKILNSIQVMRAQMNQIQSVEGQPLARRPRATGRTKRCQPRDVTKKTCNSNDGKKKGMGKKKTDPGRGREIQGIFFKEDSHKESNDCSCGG
In short: as §1

panel of 203 kinases [5] = target: T5, panel of 203 kinases (Homo sapiens, UniProt P27037); settings: 10 µM, n=1; kinase ACVR2A; read-out: Percent inhibition ACVR2A
T5 construct: purchased DiscoverX (KINOMEscan)
In short: as §1

panel of 203 kinases [6] = target: T6, panel of 203 kinases (Homo sapiens, UniProt Q15303); settings: 10 µM, n=1; kinase ERBB4; read-out: Percent inhibition ERBB4
T6 construct: purchased DiscoverX (KINOMEscan)
In short: as §1

panel of 203 kinases [7] = target: T7, panel of 203 kinases (Homo sapiens, UniProt Q16539); settings: 10 µM, n=1; kinase p38-alpha; read-out: Percent inhibition p38-alpha
T7 construct: purchased DiscoverX (KINOMEscan)
In short: as §1

panel of 203 kinases [8] = target: T8, panel of 203 kinases (Homo sapiens, UniProt P29376); settings: 10 µM, n=1; kinase LTK; read-out: Percent inhibition LTK
T8 construct: purchased DiscoverX (KINOMEscan)
In short: as §1

panel of 203 kinases [9] = target: T9, panel of 203 kinases (Homo sapiens, UniProt P41240); settings: 10 µM, n=1; kinase CSK; read-out: Percent inhibition CSK
T9 construct: purchased DiscoverX (KINOMEscan)
In short: as §1

T7 sequence (Q16539 whole entry): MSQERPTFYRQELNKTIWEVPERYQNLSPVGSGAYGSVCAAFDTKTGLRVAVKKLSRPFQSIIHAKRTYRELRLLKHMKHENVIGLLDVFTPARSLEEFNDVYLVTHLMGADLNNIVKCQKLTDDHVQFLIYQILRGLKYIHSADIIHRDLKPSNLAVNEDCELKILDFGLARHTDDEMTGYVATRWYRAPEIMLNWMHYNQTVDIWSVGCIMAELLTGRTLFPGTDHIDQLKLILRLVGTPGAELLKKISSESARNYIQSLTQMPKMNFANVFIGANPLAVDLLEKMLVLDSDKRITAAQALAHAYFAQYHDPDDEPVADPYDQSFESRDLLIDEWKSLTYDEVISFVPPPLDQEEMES
T6 sequence (Q15303 26-1308): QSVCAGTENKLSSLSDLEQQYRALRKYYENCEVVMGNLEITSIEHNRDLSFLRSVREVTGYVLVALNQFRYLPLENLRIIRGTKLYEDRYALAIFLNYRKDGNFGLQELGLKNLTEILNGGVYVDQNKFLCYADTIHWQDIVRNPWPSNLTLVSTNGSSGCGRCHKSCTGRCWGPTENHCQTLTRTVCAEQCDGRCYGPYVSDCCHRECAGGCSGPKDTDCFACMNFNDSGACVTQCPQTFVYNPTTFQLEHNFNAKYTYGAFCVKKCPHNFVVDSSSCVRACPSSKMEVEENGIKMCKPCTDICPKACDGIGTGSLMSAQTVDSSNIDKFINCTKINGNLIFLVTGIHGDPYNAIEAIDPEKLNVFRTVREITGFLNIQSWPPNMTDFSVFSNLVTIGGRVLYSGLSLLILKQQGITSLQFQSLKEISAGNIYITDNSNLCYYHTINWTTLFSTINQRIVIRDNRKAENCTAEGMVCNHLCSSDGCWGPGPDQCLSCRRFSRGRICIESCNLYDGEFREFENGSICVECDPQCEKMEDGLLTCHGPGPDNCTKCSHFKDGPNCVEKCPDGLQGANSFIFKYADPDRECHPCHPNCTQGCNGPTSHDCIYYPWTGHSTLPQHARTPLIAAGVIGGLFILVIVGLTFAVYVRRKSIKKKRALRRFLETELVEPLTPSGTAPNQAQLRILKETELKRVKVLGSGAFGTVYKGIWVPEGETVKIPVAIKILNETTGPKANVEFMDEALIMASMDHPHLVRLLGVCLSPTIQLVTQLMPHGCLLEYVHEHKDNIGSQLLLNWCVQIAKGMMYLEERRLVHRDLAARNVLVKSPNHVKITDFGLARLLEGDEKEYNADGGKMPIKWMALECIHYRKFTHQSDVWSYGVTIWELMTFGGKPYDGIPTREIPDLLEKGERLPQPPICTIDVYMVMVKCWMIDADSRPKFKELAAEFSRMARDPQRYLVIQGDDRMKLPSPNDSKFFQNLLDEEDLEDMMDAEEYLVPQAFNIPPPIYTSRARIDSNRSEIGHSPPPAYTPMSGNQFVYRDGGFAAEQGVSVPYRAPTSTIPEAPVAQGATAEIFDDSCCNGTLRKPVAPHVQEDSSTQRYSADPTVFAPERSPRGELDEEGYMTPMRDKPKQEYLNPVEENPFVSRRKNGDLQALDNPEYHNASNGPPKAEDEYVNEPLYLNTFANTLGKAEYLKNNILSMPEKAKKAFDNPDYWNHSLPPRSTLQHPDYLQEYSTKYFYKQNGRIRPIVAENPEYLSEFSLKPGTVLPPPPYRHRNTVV
T3 sequence (Q96GD4 whole entry): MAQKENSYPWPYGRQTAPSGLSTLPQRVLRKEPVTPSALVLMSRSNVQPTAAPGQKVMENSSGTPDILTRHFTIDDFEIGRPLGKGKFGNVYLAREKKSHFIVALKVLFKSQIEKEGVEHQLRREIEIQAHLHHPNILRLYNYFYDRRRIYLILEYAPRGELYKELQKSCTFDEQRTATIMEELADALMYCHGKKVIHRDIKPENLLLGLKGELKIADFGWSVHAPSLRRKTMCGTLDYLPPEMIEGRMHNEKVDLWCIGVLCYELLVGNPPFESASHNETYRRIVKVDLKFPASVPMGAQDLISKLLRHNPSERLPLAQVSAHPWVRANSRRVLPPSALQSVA
T5 sequence (P27037 20-513): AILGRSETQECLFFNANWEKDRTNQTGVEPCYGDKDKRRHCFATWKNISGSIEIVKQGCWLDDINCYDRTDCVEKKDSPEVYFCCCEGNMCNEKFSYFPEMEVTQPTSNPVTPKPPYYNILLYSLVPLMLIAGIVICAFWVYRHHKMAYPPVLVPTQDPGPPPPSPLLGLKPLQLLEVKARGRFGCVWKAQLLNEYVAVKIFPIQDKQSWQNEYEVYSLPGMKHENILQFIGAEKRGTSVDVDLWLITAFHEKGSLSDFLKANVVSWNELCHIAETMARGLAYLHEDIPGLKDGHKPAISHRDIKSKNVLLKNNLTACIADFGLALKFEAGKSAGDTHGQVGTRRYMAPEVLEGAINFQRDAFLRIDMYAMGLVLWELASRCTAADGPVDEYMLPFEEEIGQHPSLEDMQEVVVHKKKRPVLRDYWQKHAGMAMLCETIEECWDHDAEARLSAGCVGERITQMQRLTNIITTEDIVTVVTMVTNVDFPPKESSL
T9 sequence (P41240 whole entry): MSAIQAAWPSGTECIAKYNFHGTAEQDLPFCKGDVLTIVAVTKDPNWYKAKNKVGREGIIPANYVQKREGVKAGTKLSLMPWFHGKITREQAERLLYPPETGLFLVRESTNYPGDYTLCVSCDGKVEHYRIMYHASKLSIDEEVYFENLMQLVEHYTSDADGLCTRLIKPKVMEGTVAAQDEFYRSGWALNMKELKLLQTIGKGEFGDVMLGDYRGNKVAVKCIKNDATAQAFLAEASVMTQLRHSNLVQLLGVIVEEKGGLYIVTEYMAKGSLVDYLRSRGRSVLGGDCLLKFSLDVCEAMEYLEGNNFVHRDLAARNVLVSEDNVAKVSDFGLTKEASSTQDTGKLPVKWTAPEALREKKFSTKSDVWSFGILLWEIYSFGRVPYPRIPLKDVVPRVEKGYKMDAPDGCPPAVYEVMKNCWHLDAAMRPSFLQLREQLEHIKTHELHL
T1 sequence (Q9P2K8 whole entry S808G): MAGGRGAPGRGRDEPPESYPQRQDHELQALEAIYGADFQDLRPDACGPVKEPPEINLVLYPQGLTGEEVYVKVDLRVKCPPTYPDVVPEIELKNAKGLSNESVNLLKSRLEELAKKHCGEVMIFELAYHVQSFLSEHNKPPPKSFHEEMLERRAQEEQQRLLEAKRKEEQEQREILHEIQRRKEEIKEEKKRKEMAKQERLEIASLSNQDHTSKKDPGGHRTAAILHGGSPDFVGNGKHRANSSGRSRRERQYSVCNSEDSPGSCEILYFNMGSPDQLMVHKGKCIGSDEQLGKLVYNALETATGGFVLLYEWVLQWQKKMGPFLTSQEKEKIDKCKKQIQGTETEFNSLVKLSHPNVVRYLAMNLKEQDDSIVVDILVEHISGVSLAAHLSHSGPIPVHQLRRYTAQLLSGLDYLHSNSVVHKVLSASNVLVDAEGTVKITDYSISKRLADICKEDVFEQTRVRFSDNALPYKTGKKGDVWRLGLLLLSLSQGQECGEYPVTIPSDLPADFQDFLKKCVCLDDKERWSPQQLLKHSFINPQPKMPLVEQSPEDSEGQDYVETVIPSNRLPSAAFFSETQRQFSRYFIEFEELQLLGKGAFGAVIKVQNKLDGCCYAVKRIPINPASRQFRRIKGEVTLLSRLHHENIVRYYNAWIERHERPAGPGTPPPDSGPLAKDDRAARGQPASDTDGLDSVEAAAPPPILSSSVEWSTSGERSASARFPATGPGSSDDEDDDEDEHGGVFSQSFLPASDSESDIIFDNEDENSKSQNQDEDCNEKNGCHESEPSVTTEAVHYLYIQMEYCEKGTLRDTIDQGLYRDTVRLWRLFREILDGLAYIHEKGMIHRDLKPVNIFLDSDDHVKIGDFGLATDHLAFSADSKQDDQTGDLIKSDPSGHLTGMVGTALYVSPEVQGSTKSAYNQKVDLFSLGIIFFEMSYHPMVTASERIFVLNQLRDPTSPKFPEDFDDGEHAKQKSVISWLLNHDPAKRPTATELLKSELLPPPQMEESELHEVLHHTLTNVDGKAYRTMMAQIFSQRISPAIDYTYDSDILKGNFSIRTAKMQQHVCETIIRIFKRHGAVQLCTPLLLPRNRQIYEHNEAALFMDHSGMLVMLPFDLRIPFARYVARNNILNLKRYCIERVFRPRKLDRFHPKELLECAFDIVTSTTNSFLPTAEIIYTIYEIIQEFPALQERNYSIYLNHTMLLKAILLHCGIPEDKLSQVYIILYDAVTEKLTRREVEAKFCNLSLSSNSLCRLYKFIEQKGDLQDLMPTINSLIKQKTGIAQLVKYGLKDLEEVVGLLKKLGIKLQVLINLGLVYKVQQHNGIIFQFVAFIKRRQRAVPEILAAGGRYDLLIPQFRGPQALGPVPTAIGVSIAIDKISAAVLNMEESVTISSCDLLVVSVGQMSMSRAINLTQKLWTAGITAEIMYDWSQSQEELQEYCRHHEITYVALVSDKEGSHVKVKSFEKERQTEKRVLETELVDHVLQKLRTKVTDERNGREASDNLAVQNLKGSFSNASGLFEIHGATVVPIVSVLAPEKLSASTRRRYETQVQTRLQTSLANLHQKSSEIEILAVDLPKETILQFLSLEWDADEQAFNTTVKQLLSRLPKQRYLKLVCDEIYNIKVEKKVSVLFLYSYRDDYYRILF

SMILES | inhibition at 10 µM (panel of 203 kinases [1]) | inhibition at 10 µM (panel of 203 kinases [2]) | inhibition at 10 µM (panel of 203 kinases [3]) | inhibition at 10 µM (panel of 203 kinases [4]) | inhibition at 10 µM (panel of 203 kinases [5]) | inhibition at 10 µM (panel of 203 kinases [6]) | inhibition at 10 µM (panel of 203 kinases [7]) | inhibition at 10 µM (panel of 203 kinases [8]) | inhibition at 10 µM (panel of 203 kinases [9])
CN1CCN(c2ccc(Nc3nccc(-c4cnn5ncccc45)n3)cc2C#N)CC1 [Compound 1] | 99.7% | 100% | 88.5% | 0% | 0% | 0% | 0% | 0% | 83%
COc1ccc(Nc2nccc(-c3cnn4ncccc34)n2)cc1 [Compound 2] | 98.2% | 98.4% | 93.3% | 0% | 0% | 0% | 0% | 80.8% | 0%
Cc1ccc(O)cc1Nc1ccnc(Nc2cccc(C(N)=O)c2)n1 [Compound 3] | 0% | 0% | 82.8% | 100% | 99.3% | 90.9% | 77.8% | 0% | 100%
Cc1ccc(O)cc1N(C)c1ccnc(Nc2cccc(S(N)(=O)=O)c2)n1 [Compound 4] | 0% | 0% | 79.5% | 100% | 99.7% | 87.3% | 99.1% | 69.7% | 100%
Fc1cccc(COc2ccc(Nc3ncnc4c3CN(CCN3CCOCC3)CC4)cc2Cl)c1 [Compound 6] | 0% | 0% | 0% | 0% | 0% | 0% | 0% | 0% | 0%
COc1cc(Nc2nccc(-c3sc(N)nc3-c3cccc(NC(=O)c4c(F)cccc4F)c3)n2)cc(OC)c1OC [Compound 7] | 99.9% | 0% | 100% | 99.4% | 0% | 100% | 98.5% | 0% | 100%
C[C@@H](Oc1cc(-c2cnc3ccccn23)sc1C(N)=O)c1ccccc1Cl [Compound 8] | 86.6% | 86.1% | 87.3% | 0% | 0% | 0% | 0% | 0% | 0%
c1ccc(COc2cccc(-c3ccnc4[nH]ccc34)c2)cc1 [Compound 9] | 0% | 0% | 0% | 0% | 0% | 0% | 0% | 0% | 0%
Clc1ccc(Nc2ncc(-c3ccccc3)s2)cc1 [Compound 10] | 0% | 0% | 0% | 0% | 0% | 0% | 0% | 0% | 0%
Nc1ncc2c(-c3ccncc3)c[nH]c2n1 [Compound 11] | 88.5% | 92.8% | 65.6% | 62.6% | 0% | 0% | 0% | 0% | 0%

Source: paper PMC9927415, “Tyrosine Kinase Inhibitors Display Potent Activity against Cryptosporidium parvum” (Microbiology Spectrum, 2022)
